In patent US8912136B2, “Methods and compositions related to clot-binding compounds” (Sanford-Burnham Medical Research Institute, priority 2009, dated 2014):
Where no end group is shown, it is not given here. [ ]: non-standard residue; d: D form. NMeR = CN[C@@H](CCCNC(=N)N)C(=O)O; αMeR = C[C@](N)(CCCNC(=N)N)C(=O)O; NMeE = CN[C@@H](CCC(=O)O)C(=O)O; αMeE = C[C@](N)(CCC(=O)O)C(=O)O

System: orthotopic 22Rv1 xenograft tumors
Assay: In vivo homing of FAM-labeled CREKA and methylated CREKA peptides
Parameters: species or system mouse
Conditions: for tumor fluorescence compared to unmodified CREKA: 200 μg FAM-conjugated peptide, 3 hrs, Image J
Protocol: Tumor accumulation of CREKA peptide and its N-methylated and C-methylated variants. The accumulation of N-methylated and C-methylated derivatives of CREKA was measured in mice bearing orthotropic 22Rv-1 xenograft tumors. The mice were intravenously injected with 200 μg of FAM-conjugated CREKA or methylated CREKA peptides derivatives. The peptides were allowed to circulate for 3 hrs. The mice were then perfused through the heart with PBS, and organs were collected and the fluorescence was measured under UV light. The fluorescence was analyzed with Image J software. Most N/C-methylated CREKA analogs produced stronger fluorescence compared to the unmodified CREKA. […] In FIG. 10B the enhanced fluorescence of CR(NMe)EKA is shown in the tumor compared to both CREKA and C(NMe)REKA peptide. It is shown that FAM-labeled CREKA peptide in which the glutamic acid is N-methylated accumulates in tumor tissue more strongly than unmodified CREKA.
Orthotopic prostate cancers were used when they reached 0.5-1 cm in size. Synthetic peptides labeled with fluorescein (approximately 200 μg) were intravenously injected into tumor-bearing mice and allowed to circulate for 15 minutes to 3 hours. The mice were perfused with PBS through the heart under anesthesia, and tissues were collected and observed under UV light (Illumatool Bright Light System LT-9900, Lightools Research, Encinitas, Calif.), and then processed for immunofluorescence or immunohistochemistry.

Substance	tumor fluorescence compared to unmodified CREKA	accumulation in areas rich in fibrin(ogen) and fibronectin (confocal microscopy of tumor sections)	tumor accumulation / fluorescence of CREKA analogs (FAM-labeled peptides, Example 3)
CR(CMe)EKA: Cα-methylated CREKA analog (C[αMeR]EKA)	significantly more fluorescence	–	–
CRE(CMe)KA: Cα-methylated CREKA analog (CR[αMeE]KA)	significantly more fluorescence	equally active	–
C(NMe)REKA: CREKA analog in which the arginine residue is N-methylated (C[NMeR]EKA)	did not show an enhanced fluorescence	–	only weak tumor fluorescence
CRE(NMe)KA: N-methylated CREKA analog (CR[NMeE]KA)	significantly more fluorescence	–	–
CR(NMe)E(NMe)KA: doubly N-methylated CREKA analog (C[NMeR][NMeE]KA)	significantly more fluorescence	–	–
